A short description of series [1]: Pharmacokinetics of LTB4 in rats after i.v., i.j. and s.c. administration (plasma ELISA). The conditions noted are these: rat. In kind it is in vivo, female Sprague-Dawley rats. The procedure:
In this example, the pharmacokinetics of LTB4 in rats following administration by three distinct routes, intravenous (i.v.), intra-jejunal (i.j.) and sub-cutaneous (s.c.) was investigated.
Three groups of three female Sprague-Dawley rats (weighing ˜250 g) were used; animals were fasted for 18 hours, anesthetised with ketamine/xylazine and their jugular veins were canulated to allow for repeated blood sampling. LTB4 was administered at the dose of 50 μg/kg at the dose volume of 4 ml/kg for all routes. Blood samples (0.5 ml/sample) where taken at 0, 0.5, 1, 2, 5, 15, 30, and 60 minutes following LTB4 injection. The blood samples where immediately anti-coagulated with EDTA and transferred into an ice-water bath until centrifugation for plasma isolation. Plasma samples were stored at −80° C. until assayed for LTB4 content using a commercial ELISA (Cayman Chemicals, Ann Arbor, Mich., USA). The i.v administration (15 sec. bolus) of LTB4 was done through the tail vein; for i.j. administration, LTB4 was directly injected in the jejunum after opening of the abdominal cavity; s.c. administration was done in the dorsal region.
A general note: ELISA stands for enzyme-linked immunosorbent assay.

A short description of series [2]: Forced degradation of ethanolic solutions of LTB4 (acid form and Na salt). The format is physicochemical. The procedure: The ethanolic solution of LTB4 (acid form) (EtOH/water, 95/5) obtained from the manufacturer (Cascade Biochem, UK) was diluted with EtOH/water, 95/5 to generate ethanolic solutions of LTB4 (acid form) at 9 and 0.9 mg/ml. Ethanolic solutions of the sodium salt of LTB4 at 9 and 0.9 mg/ml were obtained by adding 1.05 equivalent of sodium hydroxide. Solutions of the sodium salt of LTB4 at the concentration of 9 and 0.9 mg/ml in 75/25 EtOH/10 mM glycine in water at pH 10.5 (sodium hydroxide), were obtained by mixing 3 volumes of solutions of the sodium salt of LTB4 at 12 and 1.2 mg/ml in EtOH/water, 95/5 with 1 volume of 40 mM glycine buffer at pH 10.5. Solutions were dispensed in 2 ml vials for storage under air in the dark at −80° C. and 40±5° C. for 17 months prior to reverse phase HPLC analysis of LTB4 and impurities as described in Example 1.

For `CCCCC/C=C\C[C@@H](O)/C=C/C=C/C=C\[C@@H](O)CCCC(=O)O` [LTB4, 5S,12R-dihydroxy-6,8,10,14(Z,E,E,Z)-eicosatetrae-noic acid], in series [1] (i.j. administration, 50 μg/kg), the “time of maximum plasma LTB4 level” value was 5 min and the “time of return of LTB4 plasma levels to baseline” value came out at 30 min. The “AUC for LTB4 plasma concentration, comparison of routes” value in series [1] (i.v. injection, 50 μg/kg, compared with i.j. and s.c.) was “highest AUC”. Further, in series [1] (in vivo, 50 ug/kg), the “AUC for i.j. injection relative to that of i.v. LTB4” value is listed as 35%. In series [2] (0.9 mg/ml in 95/5 EtOH/water, 17 months at 40° C.), the impurity level is 62 % of AUC. Besides, the level of impurities in series [2] (9.0 mg/ml in EtOH/water 95/5, 17 months at 40° C., AUC at 270 nm) was 100 % of AUC.

The values are drawn from US8664271B2, “Stabilized leukotriene B4 (LTB4) agent pharmaceutical formulation” (LTB4 Sweden AB, priority 2004, dated 2014).
